Earlier results in patent US9066886B2, “Transdermal drug delivery system containing granisetron” (TAHO PHARMACEUTICALS, LTD., priority 2008, dated 2015).

Details: tablet with 1 mg of granisetron; from Korean Patent Laid-Open Publication No. 10-2005-0116365

## CN1C2CCCC1CC(NC(=O)c1nn(C)c3ccccc13)C2 (stereo not shown) [granisetron]
  Cmax: 3.6 ng/mL
